Test results as given in patent US20250122183A1 (Pfizer Inc., priority 2023, published 2025).

Experiments:
Type in all cases: biochemical
KAT8 Full length enzyme = KAT8 Full length enzyme (Homo sapiens (Human), UniProt Q9H7Z6); assay: KAT8 assay (SAMDI-MS acetylation of H3 1-21 peptide); settings: Morrison equation fit; replicate number in parentheses; read-out: KAT8 Ki (nM) (replicate number)
KAT5 Full length enzyme = KAT5 Full length enzyme (Homo sapiens (Human), UniProt Q92993); assay: KAT5 assay (SAMDI-MS acetylation of H4 1-21 peptide); settings: Morrison equation fit; replicate number in parentheses; read-out: KAT5 Ki (nM) (replicate number)
KAT6A Full length enzyme = KAT6A Full length enzyme (Homo sapiens (Human), UniProt Q92794); assay: KAT6A assay (SAMDI-MS acetylation of H3 1-21 peptide); settings: Morrison equation fit; replicate number in parentheses; read-out: KAT6A Ki (nM) (replicate number)
[1] = biological target: KAT7+JADE1+EAF6+ING5 4 protein complex (Homo sapiens (Human), UniProt O95251); assay: KAT7 JADE1 assay (SAMDI-MS acetylation of H3 1-21 peptide); settings: Morrison equation fit; replicate number in parentheses; read-out: KAT7 JADE1 Ki (nM) (replicate number)
[2] = biological target: KAT7+BRPF2+EAF6+ING5 4 protein complex (Homo sapiens (Human), UniProt O95251); assay: KAT7 BRPF2 assay (SAMDI-MS acetylation of H3 1-21 peptide); settings: Morrison equation fit; replicate number in parentheses; read-out: KAT7 BRPF2 Ki (nM) (replicate number)
[3] = biological target: KAT7+BRPF1+EAF6+ING5 4 protein complex (Homo sapiens (Human), UniProt O95251); assay: KAT7 BRPF1 assay (SAMDI-MS acetylation of H3 1-21 peptide); settings: Morrison equation fit; replicate number in parentheses

Sequence of KAT8 Full length enzyme (Q9H7Z6 whole entry): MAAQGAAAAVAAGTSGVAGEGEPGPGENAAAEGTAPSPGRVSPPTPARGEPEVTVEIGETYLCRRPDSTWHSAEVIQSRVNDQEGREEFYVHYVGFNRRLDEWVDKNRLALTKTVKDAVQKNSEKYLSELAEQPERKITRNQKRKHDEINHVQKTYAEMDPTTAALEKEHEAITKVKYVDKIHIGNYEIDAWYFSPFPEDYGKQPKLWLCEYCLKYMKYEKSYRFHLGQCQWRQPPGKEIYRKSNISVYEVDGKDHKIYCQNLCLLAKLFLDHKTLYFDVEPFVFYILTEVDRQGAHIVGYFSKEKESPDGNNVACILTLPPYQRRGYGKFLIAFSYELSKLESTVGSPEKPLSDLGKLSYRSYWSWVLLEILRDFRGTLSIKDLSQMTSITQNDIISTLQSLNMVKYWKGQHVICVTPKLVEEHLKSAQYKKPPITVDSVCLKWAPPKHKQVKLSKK
Sequence of KAT5 Full length enzyme (Q92993 whole entry): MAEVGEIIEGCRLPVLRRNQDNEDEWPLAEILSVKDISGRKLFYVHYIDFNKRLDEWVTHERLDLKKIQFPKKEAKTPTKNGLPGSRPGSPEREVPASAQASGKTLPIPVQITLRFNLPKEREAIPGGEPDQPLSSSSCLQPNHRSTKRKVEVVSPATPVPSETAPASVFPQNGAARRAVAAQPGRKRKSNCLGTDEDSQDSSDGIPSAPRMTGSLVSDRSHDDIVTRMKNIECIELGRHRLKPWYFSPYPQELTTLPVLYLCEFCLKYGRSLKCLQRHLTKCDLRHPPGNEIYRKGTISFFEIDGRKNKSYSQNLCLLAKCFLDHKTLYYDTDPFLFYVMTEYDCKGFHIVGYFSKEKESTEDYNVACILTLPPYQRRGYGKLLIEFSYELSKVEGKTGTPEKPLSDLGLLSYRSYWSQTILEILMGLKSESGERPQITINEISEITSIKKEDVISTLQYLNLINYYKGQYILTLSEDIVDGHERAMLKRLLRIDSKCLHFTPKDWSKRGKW
Sequence of KAT6A Full length enzyme (Q92794 other isoform, or with tags, fused parts or gaps): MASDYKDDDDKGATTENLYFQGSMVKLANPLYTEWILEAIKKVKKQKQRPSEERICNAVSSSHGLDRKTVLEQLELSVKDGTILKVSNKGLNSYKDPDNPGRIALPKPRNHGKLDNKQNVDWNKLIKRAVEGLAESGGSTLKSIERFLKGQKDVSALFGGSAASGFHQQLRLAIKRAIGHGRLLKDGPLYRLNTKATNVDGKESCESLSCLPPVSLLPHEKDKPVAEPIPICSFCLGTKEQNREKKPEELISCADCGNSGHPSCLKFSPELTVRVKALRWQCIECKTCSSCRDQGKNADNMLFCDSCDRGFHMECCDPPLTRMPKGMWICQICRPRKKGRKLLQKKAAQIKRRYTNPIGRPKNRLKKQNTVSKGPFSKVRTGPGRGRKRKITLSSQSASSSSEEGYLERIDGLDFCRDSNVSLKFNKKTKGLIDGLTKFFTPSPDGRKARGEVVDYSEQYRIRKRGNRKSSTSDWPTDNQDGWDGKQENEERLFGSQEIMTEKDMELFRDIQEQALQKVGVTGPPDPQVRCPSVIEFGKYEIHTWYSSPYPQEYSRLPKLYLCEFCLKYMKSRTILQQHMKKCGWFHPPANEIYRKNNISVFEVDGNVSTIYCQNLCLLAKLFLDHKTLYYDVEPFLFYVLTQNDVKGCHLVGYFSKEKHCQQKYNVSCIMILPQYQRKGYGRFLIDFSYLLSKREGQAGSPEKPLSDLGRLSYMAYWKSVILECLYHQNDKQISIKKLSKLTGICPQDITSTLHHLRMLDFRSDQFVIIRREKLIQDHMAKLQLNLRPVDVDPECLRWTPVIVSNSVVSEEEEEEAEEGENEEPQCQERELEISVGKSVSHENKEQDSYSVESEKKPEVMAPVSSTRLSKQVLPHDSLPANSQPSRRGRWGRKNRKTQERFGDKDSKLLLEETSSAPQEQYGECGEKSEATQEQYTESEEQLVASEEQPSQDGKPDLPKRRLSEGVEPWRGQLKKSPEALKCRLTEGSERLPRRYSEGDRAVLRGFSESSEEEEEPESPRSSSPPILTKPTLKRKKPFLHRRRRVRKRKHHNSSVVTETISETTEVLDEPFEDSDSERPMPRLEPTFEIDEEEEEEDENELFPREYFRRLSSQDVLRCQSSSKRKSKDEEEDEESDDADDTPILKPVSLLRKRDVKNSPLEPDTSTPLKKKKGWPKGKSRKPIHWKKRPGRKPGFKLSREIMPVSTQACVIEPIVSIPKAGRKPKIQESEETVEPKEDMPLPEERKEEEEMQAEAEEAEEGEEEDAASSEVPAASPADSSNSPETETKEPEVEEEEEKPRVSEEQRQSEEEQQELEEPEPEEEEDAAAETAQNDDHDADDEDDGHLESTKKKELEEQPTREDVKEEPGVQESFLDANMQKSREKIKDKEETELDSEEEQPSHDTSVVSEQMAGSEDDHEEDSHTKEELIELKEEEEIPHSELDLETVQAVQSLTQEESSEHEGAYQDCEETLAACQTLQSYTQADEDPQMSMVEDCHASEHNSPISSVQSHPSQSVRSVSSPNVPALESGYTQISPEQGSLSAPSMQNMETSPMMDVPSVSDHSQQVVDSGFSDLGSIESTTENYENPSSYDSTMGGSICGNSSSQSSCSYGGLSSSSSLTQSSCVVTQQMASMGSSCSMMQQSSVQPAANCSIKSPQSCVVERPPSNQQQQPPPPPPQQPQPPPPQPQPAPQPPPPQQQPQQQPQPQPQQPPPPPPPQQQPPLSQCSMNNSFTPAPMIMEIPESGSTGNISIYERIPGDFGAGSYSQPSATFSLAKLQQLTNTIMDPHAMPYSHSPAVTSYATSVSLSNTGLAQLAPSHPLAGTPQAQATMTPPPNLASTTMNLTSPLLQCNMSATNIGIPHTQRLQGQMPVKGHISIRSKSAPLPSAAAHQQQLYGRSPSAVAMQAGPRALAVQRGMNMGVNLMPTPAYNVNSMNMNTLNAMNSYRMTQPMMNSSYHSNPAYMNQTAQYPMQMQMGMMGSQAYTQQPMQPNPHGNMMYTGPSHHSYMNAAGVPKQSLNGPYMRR

Row | SMILES | Ki (KAT8 Full length enzyme) [nM] | Ki (KAT5 Full length enzyme) [nM] | Ki (KAT6A Full length enzyme) [nM] | Ki [1] [nM] | Ki [2] [nM] | Ki [3] [nM]
1 | COc1cc2c(NS(=O)(=O)c3ccccc3OC)noc2cc1Nc1cc(C(C)C)[nH]n1 [Example 65, 2-methoxy-N-(5-methoxy-6-{[5-(propan-2-yl)-1H-pyrazol-3-yl]amino}-1,2-benzoxazol-3-yl)benzene-1-sulfonamide] | > 13000 | 1280 | 8.6 | 206 | 85.4 | 57.4
2 | CCOc1cc(C)c(F)cc1S(=O)(=O)Nc1noc2cc(Nc3cc[nH]n3)c(OC)cc12 [Example 77, 2-ethoxy-5-fluoro-N-{5-methoxy-6-[(1H-pyrazol-3-yl)amino]-1,2-benzoxazol-3-yl}-4-methylbenzene-1-sulfonamide] | 2760 | 243 | 0.6 | 213 | 162 | 76.1
3 | CCOc1cc(C)ccc1S(=O)(=O)Nc1noc2cc(Nc3cc(C(C)C)[nH]n3)c(OC)cc12 [Example 78, 2-ethoxy-N-(5-methoxy-6-{[5-(propan-2-yl)-1H-pyrazol-3-yl]amino}-1,2-benzoxazol-3-yl)-4-methylbenzene-1-sulfonamide] | 8730 | 354 | 2.5 | 109 | 54.4 | 40.2
4 | CCOc1cc(C)c(F)cc1S(=O)(=O)Nc1noc2cc(Nc3cc(C(C)C)[nH]n3)c(OC)cc12 [Example 79, 2-ethoxy-5-fluoro-N-(5-methoxy-6-{[5-(propan-2-yl)-1H-pyrazol-3-yl]amino}-1,2-benzoxazol-3-yl)-4-methylbenzene-1-sulfonamide] | 6570 | 692 | 5.1 | 119 | 26.5 | 25.2
5 | COc1cc2c(NS(=O)(=O)c3cc4c(cc3OC)CCCC4)noc2cc1Nc1cc(C)n[nH]1 [Example 82, 3-methoxy-N-{5-methoxy-6-[(3-methyl-1H-pyrazol-5-yl)amino]-1,2-benzoxazol-3-yl}-5,6,7,8-tetrahydronaphthalene-2-sulfonamide] | 467 | 33.8 | 0.1 | 31.8 | 18.3 | 7.5
6 | COc1cc2c(NS(=O)(=O)c3c(OC)cccc3OC)noc2cc1Nc1cc(C)n[nH]1 [Example 84, 2,6-dimethoxy-N-{5-methoxy-6-[(3-methyl-1H-pyrazol-5-yl)amino]-1,2-benzoxazol-3-yl}benzene-1-sulfonamide] | 2970 | 82.3 | 0.2 | 50.6 | 10.1 | 12.2
7 | COc1cc2c(NS(=O)(=O)c3c(OC)cc([C@H]4COCCO4)cc3OC)noc2cc1Nc1cc(C2CC2)[nH]n1 [Example 146] | 865 | 31.4 | 0.9 | 3.2 | 1.7 | 2.4
